Data: patent publication US9611248B2, “Chemical compounds” (Syngenta Participations AG, priority 2013, dated 2017)

These compounds were tested on a variety of test species (assay: Post-emergence herbicidal activity). Details: rate 1000 g/ha, evaluated after 13 days.
Format: in vivo
Design: key to ABUTH (Abutilon theophrasti) damage score / AMARE (Amaranthus retroflexus) damage score / ALOMY (Alopecurus myosuroides) damage score / ECHCG (Echinochloa crus-galli) damage score / ZEAMX (Zea mays) damage score / SOLNI (Solanum nigrum) damage score: 0 = no damage to plant, 5 = total damage to plant
How it was run: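 Damage on a 0–5 scale (5 = plant killed) was rated 13 days after treatment. Test species had been sown in standard soil and raised 8 days under glasshouse conditions of 24/16 °C, 14 h light, 65% humidity. They were then sprayed with aqueous solution from an acetone/water 50:50 formulation containing 0.5% Tween 20.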

SMILES | ABUTH (Abutilon theophrasti) damage score | ALOMY (Alopecurus myosuroides) damage score | AMARE (Amaranthus retroflexus) damage score | ECHCG (Echinochloa crus-galli) damage score | SETFA (Setaria faberi) damage score | ZEAMX (Zea mays) damage score
CCc1cc(N2C(=O)C(C)=C(OC)C2O)ncc1-c1ccccc1F (stereo not drawn) [AD105] | 5 | 2 | 5 | 3 | 4 | 1
CCc1cc(N2C(=O)C(C)=C(OC)C2O)ncc1-c1ccc(F)cc1F (stereo not drawn) [AD106] | 5 | 2 | 5 | 4 | 4 | 0
CCc1cc(N2C(=O)C(C)=C(OC)C2O)ncc1-c1ccccc1C (stereo not drawn) [AD107] | 5 | 2 | 5 | 2 | 3 | 1
CCc1cc(N2C(=O)C(C)=C(OC)C2O)ncc1-c1cccc(F)c1 (stereo not drawn) [AD108] | 5 | 3 | 5 | 3 | 5 | 0
COC1=C(C)C(=O)N(c2cc(C)c(-c3cccc(C#N)c3)cn2)C1O (stereo not drawn) [AD109] | 5 | 3 | 5 | 5 | 5 | 1
COC1=C(C)C(=O)N(c2cc(C)c(-c3ccccc3OC)cn2)C1O (stereo not drawn) [AD110] | 5 | 2 | 5 | 1 | 2 | 0
COC1=C(C)C(=O)N(c2cc(C)c(-c3ccc(C#N)cc3)cn2)C1O (stereo not drawn) [AD111] | 5 | 2 | 5 | 1 | 4 | 1
COC1=C(C)C(=O)N(c2cc(C)c(-c3ccc4c(c3)OCO4)cn2)C1O (stereo not drawn) [AD112] | 4 | 2 | 5 | 3 | 3 | 1
COC1=C(C)C(=O)N(c2cc(C)c(-c3ccoc3)cn2)C1O (stereo not drawn) [AD113] | 3 | 2 | 5 | 2 | 1 | 1
COC1=C(C)C(=O)N(c2cc(C)c(-c3cc(F)c(F)c(F)c3)cn2)C1O (stereo not drawn) [AD114] | 4 | 2 | 5 | 1 | 3 | 0
COC1=C(C)C(=O)N(c2cc(C)c(-c3ccc(OC)cc3)cn2)C1O (stereo not drawn) [AD115] | 5 | 2 | 5 | 1 | 1 | 1
COC1=C(C)C(=O)N(c2cc(C)c(-c3ccc([N+](=O)[O-])cc3)cn2)C1O (stereo not drawn) [AD116] | 2 | 0 | 5 | 0 | 1 | 1
COC1=C(C)C(=O)N(c2cc(C)c(-c3ccc(OC)c(OC)c3)cn2)C1O (stereo not drawn) [AD117] | 5 | 2 | 5 | 1 | 4 | 0
COC1=C(C)C(=O)N(c2cc(C)c(-c3cccc([N+](=O)[O-])c3)cn2)C1O (stereo not drawn) [AD118] | 5 | 2 | 5 | 2 | 4 | 0
COC1=C(C)C(=O)N(c2cc(C)c(-c3ccc(C)c([N+](=O)[O-])c3)cn2)C1O (stereo not drawn) [AD119] | 2 | 2 | 5 | 1 | 1 | 0
COC1=C(C)C(=O)N(c2cc(C)c(-c3ccccc3[N+](=O)[O-])cn2)C1O (stereo not drawn) [AD120] | 5 | 2 | 5 | 4 | 4 | 0
COC1=C(C)C(=O)N(c2cc(C)c(-c3ccccc3F)cn2)C1O (stereo not drawn) [AD121] | 5 | 3 | 5 | 3 | 5 | 1
COC1=C(C)C(=O)N(c2cc(C)c(-c3ccc(F)cc3F)cn2)C1O (stereo not drawn) [AD122] | 5 | 3 | 5 | 4 | 4 | 0
COC1=C(C)C(=O)N(c2cc(C(F)(F)F)c(-c3ccoc3)cn2)C1O (stereo not drawn) [AD124] | 2 | 2 | 5 | 2 | 4 | 0
COC1=C(C)C(=O)N(c2cc(C(F)(F)F)c(-c3ccc(S(C)(=O)=O)cc3)cn2)C1O (stereo not drawn) [AD125] | 4 | 4 | 5 | 4 | 4 | 1
COC1=C(C)C(=O)N(c2cc(C(F)(F)F)c(-c3cc(F)c(F)c(F)c3)cn2)C1O (stereo not drawn) [AD126] | 5 | 3 | 5 | 3 | 5 | 1
COC1=C(C)C(=O)N(c2cc(C(F)(F)F)c(-c3ccc(C)c([N+](=O)[O-])c3)cn2)C1O (stereo not drawn) [AD127] | 2 | 1 | 5 | 4 | 4 | 4
COC1=C(C)C(=O)N(c2cc(C(F)(F)F)c(-c3ccccc3)cn2)C1O (stereo not drawn) [AD128] | 5 | 3 | 5 | 5 | 5 | 2
COC1=C(C)C(=O)N(c2cc(C(F)(F)F)c(-c3ccccc3[N+](=O)[O-])cn2)C1O (stereo not drawn) [AD129] | 5 | 2 | 5 | 4 | 4 | 2
